Molecular target: T1, PTK2 enzyme (Homo sapiens, UniProt Q05397)
T1 construct: purchased Invitrogen PV3832
Assay: PTK2 enzyme test, Assay 1 (DELFIA, poly-Glu-Tyr substrate, antibody PT60)
Assay type: biochemical
Settings: Assay 1 (values without *); 1 h pre-incubation, 2% DMSO
Method: This test uses active PTK2 enzyme (Invitrogen Code PV3832) and poly-Glu-Tyr (4:1, Sigma P-0275) as the kinase substrate. The kinase activity is detected through the phosphorylation of the substrate in a DELFIA™ assay. The phosphorylated substrate is detected with the europium-labelled phosphotyrosine antibody PT60 (Perkin Elmer, No.: AD00400).
In order to determine concentration-activity curves with PTK2-inhibitors the compounds are serially diluted in 10% DMSO/H2O and 10 μL of each dilution are placed in each well of a 96-well microtitre plate (clear plate with a U-shaped base, Greiner No. 650101) (the inhibitors are tested in duplicates) and mixed with 10 μL/well of PTK2 kinase (0.01 μg/well). PTK2 kinase has been correspondingly diluted beforehand with kinase dilution buffer (20 mM TRIS/HCl pH 7.5, 0.1 mM EDTA, 0.1 mM EGTA, 0.286 mM sodium orthovanadate, 10% glycerol with the addition of freshly prepared BSA (fraction V, 1 mg/mL) and DTT (1 mM)). The test compound and the PTK2 kinase are pre-incubated for 1 h at RT and shaken at 500 revolutions per min. The reaction is started by the addition of 10 μL/well poly (Glu,Tyr) substrate (25 μg/well poly (Glu, Tyr), 0.05 μg/well biotinylated poly (Glu,Tyr) dissolved in 250 mM TRIS/HCl pH 7.5, 9 mM DTT)—the final concentration of DMSO is 2%. Then 20 μL of ATP Mix (30 mM TRIS/HCl pH 7.5, 0.02% Brij, 0.2 mM sodium orthovanadate, 10 mM magnesium acetate, 0.1 mM EGTA, 1× phosphatase inhibitor cocktail 1 (Sigma, No.: P2850), 50 μM ATP (Sigma, No.: A3377; 15 mM stock solution)) are added. After 1 h of kinase reaction (the plates are shaken at 500 rpm), the reaction is stopped by the addition of 12 μL/well 100 mM EDTA, pH 8.0 and shaken for a further 5 min at RT (500 rpm). 55 μL of the reaction mixture are transferred into a streptavidin plate (Strepta Well High Bind (transparent, 96-well) made by Roche, No.: 11989685001) and incubated for 1 h at RT (shaking at 500 rpm). Then the microtitre plate is washed three times with 200 μL/well D-PBS (Invitrogen, No. 14190). 100 μL of a solution containing DELFIA Eu-N1 Anti-Phosphotyrosine PT60 antibody (Perkin Elmer, No.: AD0040, diluted 1:2000 in DELFIA test buffer (Perkin Elmer, No.: 1244-111)) is then added and the mixture is incubated for 1 h at RT (shaking at 500 rpm). Then the plate is washed three times with 200 μL/well DELFIA washing buffer (Perkin Elmer, No.: 1244-114), 200 μL/well strengthening solution (Perkin Elmer, No.: 1244-105) are added and the mixture is incubated for 10 min at RT (shaking at 300 rpm).
The time-delayed europium fluorescence is then measured in a microtitre plate reader (VICTOR^3, Perkin Elmer). […] Wells that contain test buffer instead of enzyme are used as a control of the background kinase activity.
The IC50 values are determined from analyses of the concentration activity by iterative calculation with the aid of a sigmoid curve analysis algorithm (FIFTY, based on Graph PAD Prism Version 3.03) with a variable Hill coefficient.

T1 sequence (Q05397 whole entry): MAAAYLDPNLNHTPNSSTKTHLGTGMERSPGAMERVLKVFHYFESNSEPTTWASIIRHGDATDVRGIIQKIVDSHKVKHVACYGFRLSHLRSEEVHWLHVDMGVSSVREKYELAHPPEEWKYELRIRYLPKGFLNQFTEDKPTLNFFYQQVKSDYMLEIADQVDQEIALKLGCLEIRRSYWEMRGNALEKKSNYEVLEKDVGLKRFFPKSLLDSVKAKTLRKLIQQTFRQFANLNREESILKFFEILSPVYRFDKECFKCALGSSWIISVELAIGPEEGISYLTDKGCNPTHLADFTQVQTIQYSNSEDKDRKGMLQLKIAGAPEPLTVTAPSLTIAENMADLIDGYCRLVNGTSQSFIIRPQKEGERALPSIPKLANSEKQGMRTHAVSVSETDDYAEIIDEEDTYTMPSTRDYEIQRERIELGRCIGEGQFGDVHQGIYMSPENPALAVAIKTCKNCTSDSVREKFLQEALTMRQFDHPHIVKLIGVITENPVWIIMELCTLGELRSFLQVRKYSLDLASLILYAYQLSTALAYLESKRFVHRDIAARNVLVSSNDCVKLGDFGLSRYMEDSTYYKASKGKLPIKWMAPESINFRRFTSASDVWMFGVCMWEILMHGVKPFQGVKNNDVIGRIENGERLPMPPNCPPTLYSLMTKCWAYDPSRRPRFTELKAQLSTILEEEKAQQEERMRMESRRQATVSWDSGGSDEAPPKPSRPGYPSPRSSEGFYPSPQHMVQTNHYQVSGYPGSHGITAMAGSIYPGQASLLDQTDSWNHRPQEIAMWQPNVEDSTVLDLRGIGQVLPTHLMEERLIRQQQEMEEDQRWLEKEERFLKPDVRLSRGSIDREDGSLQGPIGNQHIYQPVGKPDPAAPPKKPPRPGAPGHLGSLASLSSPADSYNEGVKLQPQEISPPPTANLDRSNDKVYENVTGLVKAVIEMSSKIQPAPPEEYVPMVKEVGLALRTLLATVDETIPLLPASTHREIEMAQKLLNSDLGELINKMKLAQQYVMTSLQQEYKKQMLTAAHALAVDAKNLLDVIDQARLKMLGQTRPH

Structure (SMILES): CCC(=O)N[C@@H]1CCCC[C@H]1Nc1nc(Nc2ccc(C(=O)NC3CCN(C)CC3)cc2OC)ncc1C(F)(F)F [Example I-1, 3-methoxy-N-(1-methyl-piperidin-4-yl)-4-[4-((1R,2R)-2-propionylamino-cyclohexylamino)-5-trifluoromethyl-pyrimidin-2-ylamino]-benzamide]
- IC50: 1 nM

Structure (SMILES): COc1cc(C(=O)NC(C)C)ccc1Nc1ncc(C(F)(F)F)c(N[C@@H]2CCCC[C@H]2NC(C)=O)n1 [Example I-2, 4-[4-(2-acetylamino-cyclohexylamino)-5-trifluoromethyl-pyrimidin-2-ylamino]-N-isopropyl-3-methoxy-benzamide]
- IC50: 3 nM

Structure (SMILES): COCC(=O)N(C)[C@@H]1CCCC[C@H]1Nc1nc(Nc2ccc(C(=O)NC3CCN(C)CC3)cc2OC)ncc1C(F)(F)F [Example I-3, 3-methoxy-4-(4-{(1R,2R)-2-[(2-methoxy-acetyl)-methyl-amino]-cyclohexylamino}-5-trifluoromethyl-pyrimidin-2-ylamino)-N-(1-methyl-piperidin-4-yl)-benzamide]
- IC50: 10 nM

Structure (SMILES): COc1ccccc1Nc1ncc(Cl)c(N[C@@H]2CCCC[C@H]2NC(C)=O)n1 [Example I-4, N-{(1R,2R)-2-[5-chloro-2-(2-methoxy-phenylamino)-pyrimidin-4-ylamino]-cyclohexyl}-acetamide]
- IC50: 9 nM

Structure (SMILES): COc1cc(C(=O)NC2CCN(C)CC2)ccc1Nc1ncc(C(F)(F)F)c(N[C@@H]2CCCC[C@@H]2NC(C)=O)n1 [Example I-5]
- IC50: 19 nM

Structure (SMILES): CNC(=O)c1ccc(Nc2ncc(C(F)(F)F)c(N[C@@H]3CCCC[C@H]3NC(C)=O)n2)c(OC)c1 [Example I-6]
- IC50: 4 nM

Structure (SMILES): CCNC(=O)c1ccc(Nc2ncc(C(F)(F)F)c(N[C@@H]3CCCC[C@H]3NC(C)=O)n2)c(OC)c1 [Example I-7]
- IC50: 3 nM

Structure (SMILES): CCN1CCC(NC(=O)c2ccc(Nc3ncc(C(F)(F)F)c(N[C@@H]4CCCC[C@H]4NC(C)=O)n3)c(OC)c2)CC1 [Example I-8]
- IC50: 2 nM

Structure (SMILES): COc1cc(C(=O)NC2CCCN(C)C2)ccc1Nc1ncc(C(F)(F)F)c(N[C@@H]2CCCC[C@H]2NC(C)=O)n1 (stereo partly drawn) [Example I-10]
- IC50: 3 nM

Structure (SMILES): COc1cc(C(=O)NC2CCN(C)CC2)ccc1Nc1ncc(C(F)(F)F)c(N[C@@H]2CCCC[C@H]2NC(C)=O)n1 [Example I-11]
- IC50: 2 nM

Structure (SMILES): COc1cc(C(=O)NC2CCN(C)CC2)ccc1Nc1ncc(C(F)(F)F)c(N[C@@H]2CCCC[C@H]2NC(=O)C(C)C)n1 [Example I-12]
- IC50: 3 nM

Structure (SMILES): COc1cc(C(=O)N(C)C)ccc1Nc1ncc(C(F)(F)F)c(N[C@@H]2CCCC[C@H]2NC(C)=O)n1 [Example I-13]
- IC50: 18 nM

Structure (SMILES): COc1cc(C(=O)NC2CCN(C)CC2)ccc1Nc1ncc(C(F)(F)F)c(N[C@@H]2CCCC[C@H]2NC(=O)CC(C)C)n1 [Example I-14]
- IC50: 32 nM

Structure (SMILES): CCNC(=O)N[C@@H]1CCCC[C@H]1Nc1nc(Nc2ccc(C(=O)NC3CCN(C)CC3)cc2OC)ncc1C(F)(F)F [Example I-15]
- IC50: 3 nM

Structure (SMILES): COc1cc(C(=O)NC2CCN(C)CC2)ccc1Nc1ncc(C(F)(F)F)c(N[C@@H]2CCCC[C@H]2NC(=O)C(C)(C)C)n1 [Example I-16]
- IC50: 4 nM

Structure (SMILES): COc1cc(C(=O)NC2CCN(C)CC2)ccc1Nc1ncc(C(F)(F)F)c(N[C@@H]2CCCC[C@H]2NC(=O)CN(C)C)n1 [Example I-17]
- IC50: 15 nM

Structure (SMILES): COc1cc(C(=O)NC2CCN(C)CC2)ccc1Nc1ncc(C(F)(F)F)c(N[C@@H]2CCCC[C@H]2NC(=O)NC(C)(C)C)n1 [Example I-18]
- IC50: 46 nM

Structure (SMILES): CCCC(=O)N[C@@H]1CCCC[C@H]1Nc1nc(Nc2ccc(C(=O)NC3CCN(C)CC3)cc2OC)ncc1C(F)(F)F [Example I-19]
- IC50: 4 nM

Structure (SMILES): COc1cc(C(=O)NC2CCN(C)CC2)ccc1Nc1ncc(C(F)(F)F)c(N[C@@H]2CCCC[C@H]2NC(=O)C2CC2)n1 [Example I-20]
- IC50: 1 nM

Structure (SMILES): COCC(=O)N[C@@H]1CCCC[C@H]1Nc1nc(Nc2ccc(C(=O)NC3CCN(C)CC3)cc2OC)ncc1C(F)(F)F [Example I-21]
- IC50: 4 nM

Structure (SMILES): COc1cc(C(=O)NC2CCN(C)CC2)ccc1Nc1ncc(C(F)(F)F)c(N[C@@H]2CCCC[C@H]2NC(=O)C2CCCC2)n1 [Example I-22]
- IC50: 15 nM

Structure (SMILES): COc1cc(C(=O)NC2CCN(C)CC2)ccc1Nc1ncc(C(F)(F)F)c(N[C@@H]2CCCC[C@H]2NC(=O)C2CCC2)n1 [Example I-23]
- IC50: 3 nM

Structure (SMILES): CCN(CC)C(=O)CN[C@@H]1CCCC[C@H]1Nc1nc(Nc2ccc(C(=O)NC3CCN(C)CC3)cc2OC)ncc1C(F)(F)F [Example I-24]
- IC50: 24 nM

Structure (SMILES): CCN(CC)C(=O)CN[C@@H]1CCCC[C@H]1Nc1nc(Nc2cc(F)c(C(=O)NC3CCN(C)CC3)cc2OC)ncc1C(F)(F)F [Example I-25]
- IC50: 24 nM

Structure (SMILES): COc1cc(C(=O)NC2CCN(C)CC2)ccc1Nc1ncc(C(F)(F)F)c(N[C@@H]2CCCC[C@H]2NCC(=O)N(C)OC)n1 [Example I-26]
- IC50: 23 nM

Structure (SMILES): COc1cc(C(=O)NC2CCN(C)CC2)c(F)cc1Nc1ncc(C(F)(F)F)c(N[C@@H]2CCCC[C@H]2NCC(=O)N(C)OC)n1 [Example I-27]
- IC50: 6 nM

Structure (SMILES): COc1cc(N2CCN(C)CC2)ccc1Nc1ncc(C(F)(F)F)c(N[C@@H]2CCCC[C@H]2NC(C)=O)n1 [Example I-29]
- IC50: 1 nM

Structure (SMILES): COc1cc(N2CCN(C)CC2)ccc1Nc1ncc(C(F)(F)F)c(N[C@@H]2CCCC[C@H]2NC(=O)C(C)C)n1 [Example I-30]
- IC50: 5 nM

Structure (SMILES): COCC(=O)N[C@@H]1CCCC[C@H]1Nc1nc(Nc2ccc(N3CCN(C)CC3)cc2OC)ncc1C(F)(F)F [Example I-31]
- IC50: 5 nM

Structure (SMILES): COc1cc(N2CCN(C)CC2)ccc1Nc1ncc(C(F)(F)F)c(N[C@@H]2CCCC[C@H]2NC(=O)CN(C)C)n1 [Example I-32]
- IC50: 21 nM

Structure (SMILES): COc1cc(N2CCN(C)CC2)ccc1Nc1ncc(C(F)(F)F)c(N[C@@H]2CCCC[C@H]2NC(=O)CC(C)C)n1 [Example I-33]
- IC50: 70 nM

Structure (SMILES): COc1cc(C(=O)NC2CCN(C)CC2)ccc1Nc1ncc(C(F)(F)F)c(N[C@@H]2CCCC[C@H]2N(C)C)n1 [Example I-34]
- IC50: 71 nM

Structure (SMILES): COc1cc(C(=O)NC2CCN(C)CC2)ccc1Nc1ncc(C(F)(F)F)c(N[C@H]2CCCC[C@@H]2NC(C)=O)n1 [Example I-35]
- IC50: 81 nM

Structure (SMILES): COc1cc(C(=O)NC2CCOCC2)ccc1Nc1ncc(C(F)(F)F)c(N[C@H]2CCCC[C@@H]2NC(C)=O)n1 [Example I-36]
- IC50: 400 nM

Structure (SMILES): COc1cc(C(=O)NC2CCCN(C)C2)ccc1Nc1ncc(C(F)(F)F)c(N[C@H]2CCCC[C@@H]2NC(C)=O)n1 (stereo partly drawn) [Example I-37]
- IC50: 400 nM

Structure (SMILES): CCN1CCC(NC(=O)c2ccc(Nc3ncc(C(F)(F)F)c(N[C@H]4CCCC[C@@H]4NC(C)=O)n3)c(OC)c2)CC1 [Example I-38]
- IC50: 400 nM

Structure (SMILES): CNC(=O)c1ccc(Nc2ncc(C(F)(F)F)c(N[C@@H]3CCCC[C@H]3NC(C)=O)n2)c(OC)c1 [Example I-39]
- IC50: 2 nM

Structure (SMILES): COc1cc(C(=O)NC2CCCN(C)C2)ccc1Nc1ncc(C(F)(F)F)c(N[C@@H]2CCCC[C@H]2NC(C)=O)n1 (stereo partly drawn) [Example I-41]
- IC50: 2 nM

Structure (SMILES): COc1cc(C(=O)NC2CCOCC2)ccc1Nc1ncc(Br)c(N[C@@H]2CCCC[C@H]2NC(C)=O)n1 [Example I-44]
- IC50: 2 nM

Structure (SMILES): COc1cc(C(=O)NC2CCCN(C)C2)ccc1Nc1ncc(Br)c(N[C@@H]2CCCC[C@H]2NC(C)=O)n1 (stereo partly drawn) [Example I-45]
- IC50: 1 nM

Structure (SMILES): CNC(=O)c1ccc(Nc2ncc(Br)c(N[C@@H]3CCCC[C@H]3NC(C)=O)n2)c(OC)c1 [Example I-46]
- IC50: 2 nM

Structure (SMILES): COc1cc(C(=O)NCCN(C)C)ccc1Nc1ncc(Br)c(N[C@@H]2CCCC[C@H]2NC(C)=O)n1 [Example I-47]
- IC50: 0.96 nM

Structure (SMILES): CCNC(=O)c1ccc(Nc2ncc(Br)c(N[C@@H]3CCCC[C@H]3NC(C)=O)n2)c(OC)c1 [Example I-48]
- IC50: 2 nM

Structure (SMILES): COc1cc(C(=O)N(C)C)ccc1Nc1ncc(Br)c(N[C@@H]2CCCC[C@H]2NC(C)=O)n1 [Example I-49]
- IC50: 10 nM

Structure (SMILES): COc1cc(C(=O)NC2CCN(C)CC2)ccc1Nc1ncc(Br)c(N[C@@H]2CCCC[C@H]2NC(C)=O)n1 [Example I-50]
- IC50: 1 nM
